The source of these data is patent US20260159536A1, “AKR1C3-ACTIVATED DNA ALKYLATING AGENT, AND MEDICAL APPLICATION THEREOF” (ASCENTAWITS PHARMACEUTICALS, LTD., priority 2021, published 2026).

The subject of the assay is huH-1. In words: Cytotoxicity on hepatocellular carcinoma cell line huH-1. It counts as cell-based. The method, then: If not otherwise specified, IC50 values were measured by the following experimental methods:
a) Cells were plated for 24 hours, and then the compounds acted singly. 99 μL of growth medium was supplemented per well, and then 1 μL of 200× compound was added, gently shaken to ensure uniform mixing, and then placed in a 37° C., 5% CO2 incubator.
b) The cell plate was placed in the incubator for 72 hours.
b) 100 μL of CTG reagent (CelltiterGlo kit) was added to each well, the plate was placed in a rapid oscillator and shaken for 2 minutes, and then placed at room temperature for 30 minutes away from light.
The IC50 was calculated using GraphPad Prism 8 software and the IC50 (half inhibitory concentration) of the compounds was obtained using the following non-linear fitting formula: […]
Using the same experimental methods as described above, Compounds A, B and C were further tested for cytotoxicity against different hepatocellular carcinoma (HCC) cell lines SNU354, SNU886, MHCC97H and huH-1, and the results were shown in Table 2 below: […]

`O=[N+]([O-])c1ccc(C(OP(=O)(N2CC2)N2CC2)C(F)(F)F)cc1Oc1ccc(-c2ccc(F)cc2)c(F)c1` (racemic) [Compound A]: it took 306 nM to reach half-maximal inhibition (Homo sapiens, HuH-1) (IC50). For the same compound, where the note is “IC50 ratio, huH-1”, the “ratio A/B” value amounted to 1.19 and the “ratio A/C” value was found to be 1.14.
